# Like-named read-outs stand apart in the source and are kept apart here.
# Target: T1, rNav1.2 sodium channels (Rattus norvegicus, UniProt P04775)
# T1 construct: host or cells: HEK-293
# Assay: QPatch automated patch clamp, inhibition of sodium currents evoked by 5 Hz trains at three extracellular pH values
# Assay type: cell-based
# Conditions: for class of pH-dependence pattern (cluster analysis): Ward's method on 18 variables of affinity, reversibility, onset; for effect of alkalic pH on onset/offset kinetics: in words; for τoffset / τonset: concentration (lidocaine 300 μM, memantine 30 μM)
# Procedure, shortened: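 Trains of 5 steps from −90 to −10 mV every 20 s. Apparent affinity, onset/offset time constants (single-exponential fits) and reversibility (w−i)/(c−i) were derived from single-concentration data.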
# [1] = pH 6.0, single concentration (lidocaine 300 μM, memantine 30 μM), geometric mean of 5, read-out: apparent affinity
# [2] = pH 7.3, single concentration (lidocaine 300 μM, memantine 30 μM), geometric mean of 5, read-out: apparent affinity
# [3] = pH 8.6, single concentration (lidocaine 300 μM, memantine 30 μM), geometric mean of 5, read-out: apparent affinity
# [4] = pH=6.0, cc 300 mM, read-out: Apparent Affinity
# [5] = pH=7.3, cc 300 mM, read-out: Apparent Affinity
# [6] = pH=8.6, cc 300 mM, read-out: Apparent Affinity
# T1 sequence (P04775 whole entry): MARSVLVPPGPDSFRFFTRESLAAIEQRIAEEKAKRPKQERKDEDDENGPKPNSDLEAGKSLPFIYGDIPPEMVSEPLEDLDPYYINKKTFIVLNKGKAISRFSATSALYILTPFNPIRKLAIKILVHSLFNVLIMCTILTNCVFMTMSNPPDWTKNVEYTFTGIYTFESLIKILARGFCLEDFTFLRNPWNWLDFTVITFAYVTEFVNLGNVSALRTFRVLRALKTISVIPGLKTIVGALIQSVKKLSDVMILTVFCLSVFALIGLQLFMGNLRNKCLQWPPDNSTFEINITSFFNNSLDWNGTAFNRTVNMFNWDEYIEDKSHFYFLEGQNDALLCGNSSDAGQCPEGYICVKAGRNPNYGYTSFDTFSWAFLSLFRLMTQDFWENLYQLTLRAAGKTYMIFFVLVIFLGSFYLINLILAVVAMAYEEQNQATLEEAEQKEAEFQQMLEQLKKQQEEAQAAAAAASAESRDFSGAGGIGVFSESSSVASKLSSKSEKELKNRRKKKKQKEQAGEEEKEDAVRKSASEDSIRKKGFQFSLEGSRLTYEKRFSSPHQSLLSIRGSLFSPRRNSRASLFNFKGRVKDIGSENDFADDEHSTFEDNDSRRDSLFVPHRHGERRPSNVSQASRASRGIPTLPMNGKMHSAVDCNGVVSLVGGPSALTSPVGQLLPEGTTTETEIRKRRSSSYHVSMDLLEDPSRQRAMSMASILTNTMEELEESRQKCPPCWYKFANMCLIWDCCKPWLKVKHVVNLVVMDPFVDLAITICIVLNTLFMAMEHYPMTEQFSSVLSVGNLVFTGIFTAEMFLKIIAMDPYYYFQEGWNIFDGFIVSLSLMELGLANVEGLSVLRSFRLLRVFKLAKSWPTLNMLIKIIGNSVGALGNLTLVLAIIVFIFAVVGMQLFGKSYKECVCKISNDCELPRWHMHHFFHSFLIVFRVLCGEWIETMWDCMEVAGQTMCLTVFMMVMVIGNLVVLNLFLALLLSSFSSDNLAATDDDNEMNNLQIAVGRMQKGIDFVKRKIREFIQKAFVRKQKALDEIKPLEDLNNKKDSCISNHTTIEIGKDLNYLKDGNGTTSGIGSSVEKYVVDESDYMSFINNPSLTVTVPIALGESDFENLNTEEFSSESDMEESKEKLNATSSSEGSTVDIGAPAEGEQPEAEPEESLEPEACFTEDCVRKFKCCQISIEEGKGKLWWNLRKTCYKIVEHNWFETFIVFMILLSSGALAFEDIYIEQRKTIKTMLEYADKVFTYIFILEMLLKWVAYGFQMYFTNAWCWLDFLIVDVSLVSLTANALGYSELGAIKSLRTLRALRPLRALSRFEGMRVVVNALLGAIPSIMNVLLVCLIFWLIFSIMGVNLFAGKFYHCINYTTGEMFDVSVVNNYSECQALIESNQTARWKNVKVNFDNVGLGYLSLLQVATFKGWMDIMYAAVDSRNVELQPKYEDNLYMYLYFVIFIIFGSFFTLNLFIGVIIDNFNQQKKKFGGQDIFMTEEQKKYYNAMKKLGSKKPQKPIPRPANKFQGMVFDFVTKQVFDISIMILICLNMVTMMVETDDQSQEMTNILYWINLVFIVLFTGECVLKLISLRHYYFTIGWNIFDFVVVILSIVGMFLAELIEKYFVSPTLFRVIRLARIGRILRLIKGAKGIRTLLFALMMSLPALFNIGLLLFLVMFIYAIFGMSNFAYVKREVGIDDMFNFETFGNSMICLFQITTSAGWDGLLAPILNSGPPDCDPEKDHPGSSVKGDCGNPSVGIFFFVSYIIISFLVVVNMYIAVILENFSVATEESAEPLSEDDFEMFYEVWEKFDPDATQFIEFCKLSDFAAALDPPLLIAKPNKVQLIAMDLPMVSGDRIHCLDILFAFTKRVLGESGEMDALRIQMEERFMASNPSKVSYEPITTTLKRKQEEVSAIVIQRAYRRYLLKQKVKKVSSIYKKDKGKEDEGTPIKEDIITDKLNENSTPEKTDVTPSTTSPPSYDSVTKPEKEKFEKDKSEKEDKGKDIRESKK
class of pH-dependence pattern (cluster analysis),τoffset (pH 6.0) [s],τonset (pH 6.0) [s],Kd [1] [µM],τoffset (pH 7.3) [s],τonset (pH 7.3) [s],Kd [2] [µM],τoffset (pH 8.6) [s],τonset (pH 8.6) [s],Kd [3] [µM],Structure (SMILES),effect of alkalic pH on onset/offset kinetics,"Ratio Reversibility (pH 6.0/7.3, cc 300 mM)","Ratio Tau Offset (pH 6.0/7.3, cc 300 mM)","Ratio Tau Onset (pH 6.0/7.3, cc 300 mM)","log Ratio App Aff (pH 6.0/7.3, cc 300 mM)","Ratio Reversibility (pH 6.0/8.6, cc 300 mM)","Ratio Tau Offset (pH 6.0/8.6, cc 300 mM)","Ratio Tau Onset (pH 6.0/8.6, cc 300 mM)","log Ratio App Aff (pH 6.0/8.6, cc 300 mM)","Ratio Reversibility (pH 7.3/8.6, cc 300 mM)",other results
Class B,91.40,58.00,68.1,68.00,24.60,25.9,29.40,7.60,17.8,O=C(NCC1CCCCN1)c1cc(OCC(F)(F)F)ccc1OCC(F)(F)F (stereo not drawn) [flecainide],significant acceleration of both onset and offset,1.142,1.344,2.358,0.419,2.794,3.109,7.632,0.583,2.446,"Ratio Tau Offset (pH 7.3/8.6, cc 300 mM): 2.313; Ratio Tau Onset (pH 7.3/8.6, cc 300 mM): 3.237; log Ratio App Aff (pH 7.3/8.6, cc 300 mM): 0.164; Reversibility (pH=6.0, cc 300 mM): 0.64; Kd [4]: 68.1 µM; Reversibility (pH=7.3, cc 300 mM): 0.56; Kd [5]: 25.9 µM; Reversibility (pH=8.6, cc 300 mM): 0.23; Kd [6]: 17.8 µM"
Class A,29.60,12.00,206,24.20,19.00,225,17.80,18.00,243,COc1ccccc1OCC(O)CN1CCN(CC(=O)Nc2c(C)cccc2C)CC1 (stereo not drawn) [ranolazine],–,–,–,–,–,–,–,–,–,–,"Ratio Reversibility (pH 6.0/7.3, cc 100 mM): 0.873; Ratio Tau Offset (pH 6.0/7.3, cc 100 mM): 1.223; Ratio Tau Onset (pH 6.0/7.3, cc 100 mM): 0.632; log Ratio App Aff (pH 6.0/7.3, cc 100 mM): -0.038; Ratio Reversibility (pH 6.0/8.6, cc 100 mM): 1.042; Ratio Tau Offset (pH 6.0/8.6, cc 100 mM): 1.663; Ratio Tau Onset (pH 6.0/8.6, cc 100 mM): 0.667; log Ratio App Aff (pH 6.0/8.6, cc 100 mM): -0.072; Ratio Reversibility (pH 7.3/8.6, cc 100 mM): 1.194; Ratio Tau Offset (pH 7.3/8.6, cc 100 mM): 1.360; Ratio Tau Onset (pH 7.3/8.6, cc 100 mM): 1.056; log Ratio App Aff (pH 7.3/8.6, cc 100 mM): -0.034; Reversibility (pH=6.0, cc 100 mM): 0.76; Kd (pH=6.0, cc 100 mM, read-out: Apparent Affinity): 206 µM; Reversibility (pH=7.3, cc 100 mM): 0.88; Kd (pH=7.3, cc 100 mM, read-out: Apparent Affinity): 225 µM; Reversibility (pH=8.6, cc 100 mM): 0.73; Kd (pH=8.6, cc 100 mM, read-out: Apparent Affinity): 243 µM"

Structure (SMILES),class of pH-dependence pattern (cluster analysis),τoffset (pH 6.0) [s],τonset (pH 6.0) [s],Kd [1] [µM],τoffset (pH 7.3) [s],τonset (pH 7.3) [s],Kd [2] [µM],τoffset (pH 8.6) [s],τonset (pH 8.6) [s],Kd [3] [µM],effect of alkalic pH on onset/offset kinetics,"Ratio Reversibility (pH 6.0/7.3, cc 300 mM)","Ratio Tau Offset (pH 6.0/7.3, cc 300 mM)","Ratio Tau Onset (pH 6.0/7.3, cc 300 mM)","log Ratio App Aff (pH 6.0/7.3, cc 300 mM)","Ratio Reversibility (pH 6.0/8.6, cc 300 mM)","Ratio Tau Offset (pH 6.0/8.6, cc 300 mM)","Ratio Tau Onset (pH 6.0/8.6, cc 300 mM)","log Ratio App Aff (pH 6.0/8.6, cc 300 mM)","Ratio Reversibility (pH 7.3/8.6, cc 300 mM)",other results
Cc1cccc(C)c1OCC(C)N (stereo not drawn) [mexiletine],Class F,21.00,15.80,350,19.60,13.60,189,22.40,11.20,57.3,acceleration of onset,0.987,1.071,1.162,0.268,1.300,0.938,1.411,0.786,1.317,"Ratio Tau Offset (pH 7.3/8.6, cc 300 mM): 0.875; Ratio Tau Onset (pH 7.3/8.6, cc 300 mM): 1.214; log Ratio App Aff (pH 7.3/8.6, cc 300 mM): 0.518; KD app, effect of acidic medium (pH = 6.0 vs neutral, increased KD app = decreased apparent affinity): MEM,MEX,TOL↑; Reversibility (pH=6.0, cc 300 mM): 0.78; Kd [4]: 350 µM; Reversibility (pH=7.3, cc 300 mM): 0.79; Kd [5]: 189 µM; Reversibility (pH=8.6, cc 300 mM): 0.60; Kd [6]: 57.3 µM"

# Reference: publication PMC4585259 (Frontiers in Pharmacology, 2015)
